Reference: the supplement of paper PMC10307832

What was measured:
Test in all cases: relative viability (nuclei count vs DMSO), 5 days (fraction); higher = more cells survive
MLN4924 + Olaparib = compound: NS(=O)(=O)OC[C@@H]1C[C@@H](n2ccc3c(N[C@H]4CCc5ccccc54)ncnc32)C[C@@H]1O [MLN4924] + O=C(c1cc(Cc2n[nH]c(=O)c3ccccc23)ccc1F)N1CCN(C(=O)C2CC2)CC1 [Olaparib] (partner 8 µM)
Method in brief: (§1)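 For relative viability, nuclei counts in treated wells were divided by those in vehicle wells. Lung cancer cell lines had been pin-tool dosed in 1536-well plates the day after seeding and cultured for 5 days, then fixed and stained in one step (final 0.05% Triton X-100, 1% formaldehyde, 1 ug/ml Hoechst) and imaged at 4×. Doses were one drug alone or a fixed anchor-drug dose plus five library-drug doses (not always all listed) in √10 steps, and values are duplicate-plate medians.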

Carboplatin + AZD7762 = compound: C1CC(C1)(C(=O)O)C(=O)O.[NH2-].[NH2-].[Pt+2] [Carboplatin] + NC(=O)Nc1cc(-c2cccc(F)c2)sc1C(=O)N[C@H]1CCCNC1 [AZD7762] (partner 0.2 µM)
Method in brief: as §1

Carboplatin + Lapatinib = compound: C1CC(C1)(C(=O)O)C(=O)O.[NH2-].[NH2-].[Pt+2] [Carboplatin] + CS(=O)(=O)CCNCc1ccc(-c2ccc3ncnc(Nc4ccc(OCc5cccc(F)c5)c(Cl)c4)c3c2)o1 [Lapatinib] (partner 2 µM)
Method in brief: as §1

MLN4924 + Trametinib = compound: NS(=O)(=O)OC[C@@H]1C[C@@H](n2ccc3c(N[C@H]4CCc5ccccc54)ncnc32)C[C@@H]1O [MLN4924] + CC(=O)Nc1cccc(-n2c(=O)n(C3CC3)c(=O)c3c(Nc4ccc(I)cc4F)n(C)c(=O)c(C)c32)c1 [Trametinib] (partner 0.02 µM)
Method in brief: as §1

| Cell Line | relative viability (MLN4924 + Olaparib; first compound 0.04 µM) | relative viability (MLN4924 + Olaparib; first compound 0.1265 µM) | relative viability (MLN4924 + Olaparib; first compound 0.4 µM) | relative viability (MLN4924 + Olaparib; first compound 1.265 µM) | relative viability (MLN4924 + Olaparib; first compound 4 µM) | relative viability (Carboplatin + AZD7762; first compound 0.08 µM) | relative viability (Carboplatin + AZD7762; first compound 0.253 µM) | relative viability (Carboplatin + AZD7762; first compound 0.8 µM) | relative viability (Carboplatin + AZD7762; first compound 2.53 µM) | relative viability (Carboplatin + AZD7762; first compound 8 µM) | relative viability (Carboplatin + Lapatinib; first compound 0.08 µM) | relative viability (Carboplatin + Lapatinib; first compound 0.253 µM) | relative viability (Carboplatin + Lapatinib; first compound 0.8 µM) | relative viability (Carboplatin + Lapatinib; first compound 2.53 µM) | relative viability (Carboplatin + Lapatinib; first compound 8 µM) | relative viability (MLN4924 + Trametinib; first compound 0.04 µM) | relative viability (MLN4924 + Trametinib; first compound 0.1265 µM) | relative viability (MLN4924 + Trametinib; first compound 0.4 µM) | relative viability (MLN4924 + Trametinib; first compound 1.265 µM) | relative viability (MLN4924 + Trametinib; first compound 4 µM) |
| --- | --- | --- | --- | --- | --- | --- | --- | --- | --- | --- | --- | --- | --- | --- | --- | --- | --- | --- | --- | --- |
| 201T | 0.832 | 0.589 | 0.548 | 0.225 | 0.267 | 0.643 | 0.608 | 0.612 | 0.482 | 0.423 | 1.06 | 1.08 | 1.11 | 1.08 | 0.99 | 0.786 | 0.676 | 0.523 | 0.3 | 0.322 |
| A549 | 0.349 | 0.28 | 0.0869 | 0.045 | 0.0539 |  |  |  |  |  | 1.12 | 0.938 | 0.911 | 0.928 | 0.437 |  |  |  |  |  |
| A-427 | 0.467 | 0.335 | 0.296 | 0.24 | 0.241 | 0.75 | 0.759 | 0.778 | 0.762 | 0.795 | 1.1 | 1.05 | 1.04 | 1.04 | 0.985 | 0.612 | 0.477 | 0.334 | 0.271 | 0.263 |
| ABC-1 | 0.997 | 0.878 | 0.779 | 0.275 | 0.294 |  | 0.674 | 0.91 | 0.77 | 0.66 | 1.12 | 1.55 | 0.848 | 0.902 | 1.17 |  |  |  |  |  |
| BEN | 0.662 | 0.328 | 0.264 | 0.189 | 0.207 | 0.912 | 0.792 | 0.725 | 0.723 | 0.818 | 0.797 | 0.87 | 0.749 | 0.654 | 0.59 | 1 | 0.733 | 0.548 | 0.372 | 0.287 |
| CAL-12T | 0.667 | 0.538 | 0.249 | 0.17 | 0.13 | 0.848 | 0.579 | 0.674 | 0.555 | 0.548 | 0.754 | 0.624 | 0.749 | 0.755 | 0.639 | 0.373 | 0.371 | 0.269 | 0.279 | 0.158 |
| COR-L23 | 0.32 | 0.331 | 0.199 | 0.124 | 0.114 |  |  |  |  |  | 0.946 | 0.919 | 0.67 | 0.728 | 0.419 | 0.633 | 0.683 | 0.416 | 0.162 | 0.122 |
| COR-L 105 | 0.5 | 0.568 | 0.427 | 0.278 | 0.335 |  |  |  |  |  | 0.354 | 0.349 | 0.381 | 0.332 | 0.382 | 0.433 | 0.417 | 0.422 | 0.3 | 0.339 |
| Calu-6 | 0.369 | 0.268 | 0.167 | 0.0976 | 0.0925 |  |  |  |  |  | 1.12 | 1.06 | 1.03 | 0.87 | 0.456 |  |  |  |  |  |
| ChaGo-K-1 | 0.279 | 0.205 | 0.227 | 0.153 | 0.147 | 0.935 | 0.866 | 0.891 | 0.817 | 0.639 |  |  |  |  |  | 0.763 | 0.411 | 0.392 | 0.186 | 0.174 |
| EBC-1 | 0.558 | 0.259 | 0.134 | 0.0918 | 0.115 |  |  |  |  |  | 0.201 | 0.234 | 0.201 | 0.208 | 0.204 |  |  |  |  |  |
| EKVX | 0.801 | 0.588 | 0.531 | 0.206 | 0.169 | 0.743 | 0.757 | 0.737 | 0.739 | 0.537 | 0.21 | 0.2 | 0.217 | 0.191 | 0.218 | 0.314 | 0.349 | 0.319 | 0.244 | 0.193 |
| EMC-BAC-2 | 0.397 | 0.286 | 0.225 | 0.214 | 0.241 | 1.15 | 0.993 | 1.11 | 1.07 | 0.973 | 0.883 | 0.886 | 0.924 | 0.837 | 0.88 | 0.762 | 0.589 | 0.466 | 0.324 | 0.35 |
| EPLC-272H | 0.352 | 0.176 | 0.0677 | 0.0995 | 0.105 | 0.308 | 0.218 | 0.309 | 0.208 | 0.208 | 1.01 | 1.14 | 0.961 | 0.981 | 0.901 | 0.339 | 0.333 | 0.0863 | 0.147 | 0.126 |
| H3255 | 0.481 | 0.372 | 0.297 | 0.253 | 0.268 | 1.08 | 0.917 | 0.852 | 0.832 | 0.734 | 0.276 | 0.248 | 0.269 | 0.257 | 0.236 | 0.591 | 0.53 | 0.409 | 0.304 | 0.306 |
| HARA | 0.401 | 0.413 | 0.127 | 0.0734 | 0.107 | 0.279 | 0.344 | 0.265 | 0.279 | 0.383 | 0.816 | 0.842 | 0.841 | 0.654 | 0.695 | 0.671 | 0.79 | 0.357 | 0.114 | 0.111 |
| HCC-15 | 0.318 | 0.164 | 0.159 | 0.106 | 0.0825 | 1.17 | 1.22 | 1.16 | 1.33 | 0.644 | 0.919 | 0.854 | 0.875 | 0.814 | 0.66 | 0.362 | 0.279 | 0.191 | 0.105 | 0.106 |
| HCC-44 | 0.882 | 0.748 | 0.694 | 0.538 | 0.414 | 1.06 | 1.03 | 1.02 | 1.01 | 0.992 | 1.03 | 1.01 | 0.984 | 0.965 | 0.968 | 0.962 | 0.844 | 0.814 | 0.447 | 0.368 |
